Assay results taken from US8030300B2, “Ligands for nicotinic acetylcholine receptors, and methods of making and using them” (priority 2003, dated 2011).
Read-outs that look alike come from different tables or passages of the source.

Legend:
Test in all cases: biochemical
Assay type in all cases: binding
α2β2 nAChR subtype = biological target: T1, α2β2 nAChR subtype (Rattus norvegicus, UniProt P12389+P12390)
T1 construct: expressed in transfected cells
Excerpt: (§1) In order to assess the steric and hydropathic effects of the C-5 substituents of the pyridine on the binding affinity and subtype-selectivity at neuronal nicotinic acetylcholine receptors. […] The binding affinity ratios for a ligand, calculated from its affinities at an α subunit paired with either the β2 osubunit or the β4 subunit, represents a measure of the selectivity of that ligand with regard to the β subunits.

α2β4 nAChR subtype = biological target: T2, α2β4 nAChR subtype (Rattus norvegicus, UniProt P12389+P12392)
T2 construct: expressed in transfected cells
T2 sequence (P12389 28-511): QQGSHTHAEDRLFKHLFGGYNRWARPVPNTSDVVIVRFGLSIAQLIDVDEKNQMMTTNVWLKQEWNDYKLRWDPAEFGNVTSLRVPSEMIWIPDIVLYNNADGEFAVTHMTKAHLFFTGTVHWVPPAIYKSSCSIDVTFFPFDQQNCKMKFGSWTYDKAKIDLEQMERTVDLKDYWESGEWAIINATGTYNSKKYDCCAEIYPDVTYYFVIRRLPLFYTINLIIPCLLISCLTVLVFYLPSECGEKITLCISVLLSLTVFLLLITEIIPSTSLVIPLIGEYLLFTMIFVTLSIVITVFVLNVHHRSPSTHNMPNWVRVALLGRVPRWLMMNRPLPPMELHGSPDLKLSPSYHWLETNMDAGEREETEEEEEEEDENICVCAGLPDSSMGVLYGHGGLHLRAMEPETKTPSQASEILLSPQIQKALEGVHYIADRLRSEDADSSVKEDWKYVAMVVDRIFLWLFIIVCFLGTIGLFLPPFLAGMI
T2 sequence (P12392 21-495): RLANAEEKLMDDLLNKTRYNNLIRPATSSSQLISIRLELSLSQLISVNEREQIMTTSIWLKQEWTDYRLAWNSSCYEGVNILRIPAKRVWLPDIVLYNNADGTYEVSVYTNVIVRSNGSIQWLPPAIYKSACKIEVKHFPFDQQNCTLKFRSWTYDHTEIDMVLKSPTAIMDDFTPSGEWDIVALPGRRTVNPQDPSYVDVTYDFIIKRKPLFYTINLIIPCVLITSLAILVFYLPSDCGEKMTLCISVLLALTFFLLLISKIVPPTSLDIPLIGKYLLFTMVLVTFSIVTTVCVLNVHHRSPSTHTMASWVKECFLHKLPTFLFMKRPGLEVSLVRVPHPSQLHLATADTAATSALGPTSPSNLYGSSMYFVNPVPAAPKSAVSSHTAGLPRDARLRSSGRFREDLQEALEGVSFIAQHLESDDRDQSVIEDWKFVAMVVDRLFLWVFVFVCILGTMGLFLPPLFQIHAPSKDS
Excerpt: as §1

α3β2 nAChR subtype = biological target: T3, α3β2 nAChR subtype (Rattus norvegicus, UniProt P04757+P12390)
T3 construct: expressed in transfected cells
T3 sequence (P12390 25-500): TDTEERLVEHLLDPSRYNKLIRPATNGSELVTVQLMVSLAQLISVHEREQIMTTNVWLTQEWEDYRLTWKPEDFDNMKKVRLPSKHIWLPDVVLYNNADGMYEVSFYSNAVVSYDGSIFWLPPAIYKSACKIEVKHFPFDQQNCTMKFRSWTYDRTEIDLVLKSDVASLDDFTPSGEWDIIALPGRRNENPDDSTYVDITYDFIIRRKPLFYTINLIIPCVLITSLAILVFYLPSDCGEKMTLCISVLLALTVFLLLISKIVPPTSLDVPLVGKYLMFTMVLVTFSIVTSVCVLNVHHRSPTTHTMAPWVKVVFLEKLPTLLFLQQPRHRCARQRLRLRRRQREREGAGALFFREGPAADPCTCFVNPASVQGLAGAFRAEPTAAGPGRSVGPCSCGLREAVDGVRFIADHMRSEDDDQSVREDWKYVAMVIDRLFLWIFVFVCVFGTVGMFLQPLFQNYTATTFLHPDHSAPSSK
T3 sequence (P04757 26-499): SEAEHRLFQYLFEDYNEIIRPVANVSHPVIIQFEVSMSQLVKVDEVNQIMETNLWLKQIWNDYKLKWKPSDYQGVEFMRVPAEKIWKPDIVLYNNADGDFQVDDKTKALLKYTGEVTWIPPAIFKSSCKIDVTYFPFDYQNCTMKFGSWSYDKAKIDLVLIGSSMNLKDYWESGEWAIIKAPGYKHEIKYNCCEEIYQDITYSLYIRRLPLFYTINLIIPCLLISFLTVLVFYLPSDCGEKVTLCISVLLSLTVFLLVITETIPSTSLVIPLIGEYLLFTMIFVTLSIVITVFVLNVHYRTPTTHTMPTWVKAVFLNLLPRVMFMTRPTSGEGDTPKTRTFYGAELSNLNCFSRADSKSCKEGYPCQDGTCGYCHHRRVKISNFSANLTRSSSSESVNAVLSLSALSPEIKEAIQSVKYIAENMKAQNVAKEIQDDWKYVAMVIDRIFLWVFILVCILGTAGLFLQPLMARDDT
Excerpt: as §1

α3β4 nAChR subtype = biological target: T4, α3β4 nAChR subtype (Rattus norvegicus, UniProt P04757+P12392)
T4 construct: expressed in transfected cells
T4 sequence (P04757 26-499): as above
T4 sequence (P12392 21-495): as the sequence (P12392 21-495) above
Excerpt: as §1

α4β2 nAChR subtype = biological target: T5, α4β2 nAChR subtype (Rattus norvegicus, UniProt P09483+P12390)
T5 construct: expressed in transfected cells
T5 sequence (P12390 25-500): as the sequence (P12390 25-500) above
T5 sequence (P09483 31-630): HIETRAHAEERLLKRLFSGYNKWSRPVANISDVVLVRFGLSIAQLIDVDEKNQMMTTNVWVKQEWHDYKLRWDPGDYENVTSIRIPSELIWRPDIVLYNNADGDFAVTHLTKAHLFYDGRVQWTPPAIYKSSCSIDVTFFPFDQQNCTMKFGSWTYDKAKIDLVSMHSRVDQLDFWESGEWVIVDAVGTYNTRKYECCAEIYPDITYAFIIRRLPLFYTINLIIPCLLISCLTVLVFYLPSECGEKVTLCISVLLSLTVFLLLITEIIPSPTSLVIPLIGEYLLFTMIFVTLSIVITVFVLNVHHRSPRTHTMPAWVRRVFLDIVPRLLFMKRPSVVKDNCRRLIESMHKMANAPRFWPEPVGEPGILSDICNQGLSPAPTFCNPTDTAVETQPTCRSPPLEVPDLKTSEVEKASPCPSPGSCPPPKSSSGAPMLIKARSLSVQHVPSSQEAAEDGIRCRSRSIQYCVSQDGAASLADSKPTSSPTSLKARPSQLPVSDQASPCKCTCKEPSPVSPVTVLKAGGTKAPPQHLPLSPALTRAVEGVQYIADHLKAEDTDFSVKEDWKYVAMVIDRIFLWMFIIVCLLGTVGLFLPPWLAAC
Excerpt: as §1

α4β4 nAChR subtype = biological target: T6, α4β4 nAChR subtype (Rattus norvegicus, UniProt P09483+P12392)
T6 construct: expressed in transfected cells
T6 sequence (P12392 21-495): as the sequence (P12392 21-495) above
T6 sequence (P09483 31-630): as the sequence (P09483 31-630) above
Excerpt: as §1

[1] = biological target: T7, receptors in rat forebrain (mainly α4β2) (Rattus norvegicus, UniProt P09483+P12390)
T7 construct: from tissue; host or cells: rat forebrain homogenate
T7 sequence (P09483 31-630): as above
T7 sequence (P12390 25-500): as the sequence (P12390 25-500) above
Excerpt: as §1
In Vitro Inhibition of ^3H-Epibatidin Binding
The high affinity binding site for ^3H-epibatidin is most certainly binding to the α4β2 subtype of nicotinic receptors. The identity of the low affinity site is still believed to be unknown.
Tissue preparation: Preparations may be performed at 0-4° C. unless otherwise indicated. […] The tissue suspension may then be centrifuged at 27,000×g for 10 min. The supernatant is then discarded and the pellet may then be washed three times by centrifugation at 27,000×g for 10 min in 20 mL fresh buffer, and the final pellet may be resuspended in fresh buffer (400 mL per g of original tissue) and used for binding assays.
Assay: Aliquots of 2.0 mL homogenate may be added to 0.100 mL of test solution and 0.100 mL of ^3H-epibatidin (0.3 nM, final concentration), mixed and incubated for 60 min at room temperature. […] The amount of radioactivity on the filters may be determined by conventional liquid scintillation counting. Specific binding is total binding minus non-specific binding.

[2] = Ki α2β2, Table 1, mean of 3 (1, 2: 3 to 6) independent measurements
[3] = Ki α2β4, Table 1, mean of 3 (1, 2: 3 to 6) independent measurements
[4] = Ki α3β2, Table 1, mean of 3 (1, 2: 3 to 6) independent measurements
[5] = Ki α3β4, Table 1, mean of 3 (1, 2: 3 to 6) independent measurements
[6] = Ki α4β2, Table 1, mean of 3 (1, 2: 3 to 6) independent measurements
[7] = Ki α4β4, Table 1, mean of 3 (1, 2: 3 to 6) independent measurements
[8] = Ki Rat forebrain, Table 1, mean of 3 (1, 2: 3 to 6) independent measurements
[9] = Ki α2β2, Table 5, rat nAChR subtypes
[10] = Ki α2β4, Table 5, rat nAChR subtypes
[11] = Ki α3β2, Table 5, rat nAChR subtypes
[12] = Ki α3β4, Table 5, rat nAChR subtypes
[13] = Ki α4β2, Table 5, rat nAChR subtypes
[14] = Ki α4β4, Table 5, rat nAChR subtypes
[15] = Ki α4β2*, Table 5, *Rat forebrain, mainly α4β2

T1 sequence (P12390 25-500): as above
T1 sequence (P12389 28-511): as the sequence (P12389 28-511) above

Structure (SMILES) | Ki (α2β2 nAChR subtype) [nM] | Ki (α2β4 nAChR subtype) [nM] | Ki (α3β2 nAChR subtype) [nM] | Ki (α3β4 nAChR subtype) [nM] | Ki (α4β2 nAChR subtype) [nM] | Ki (α4β4 nAChR subtype) [nM] | Ki [1] [nM] | Ki (α2β2 nAChR subtype; [2]) [nM] | Ki (α2β4 nAChR subtype; [3]) [nM] | Ki (α3β2 nAChR subtype; [4]) [nM] | Ki (α3β4 nAChR subtype; [5]) [nM] | Ki (α4β2 nAChR subtype; [6]) [nM] | Ki (α4β4 nAChR subtype; [7]) [nM] | Ki [1, 8] [nM] | other results
CN1CCC[C@H]1COc1cncc(C#CCNC(=O)OC(C)(C)C)c1 [Ligand 13, 5-(3-tert-Butoxycarbonylamino-1-propynyl)-3-(1-methyl-2(S)-pyrrolidinylmethoxy)pyridine] |  |  |  |  |  |  |  |  |  |  |  |  |  |  | Ki (α2β2 nAChR subtype; read-out: Ki α2β2, Table 5, rat nAChR subtypes): 1.19 nM; Ki (α2β4 nAChR subtype; read-out: Ki α2β4, Table 5, rat nAChR subtypes): 8240 nM; Ki (α3β2 nAChR subtype; read-out: Ki α3β2, Table 5, rat nAChR subtypes): 7.27 nM; Ki (α3β4 nAChR subtype; read-out: Ki α3β4, Table 5, rat nAChR subtypes): 59900 nM; Ki (α4β2 nAChR subtype; read-out: Ki α4β2, Table 5, rat nAChR subtypes): 2.07 nM; Ki (α4β4 nAChR subtype; read-out: Ki α4β4, Table 5, rat nAChR subtypes): 8280 nM; Ki ([1]; read-out: Ki α4β2*, Table 5, *Rat forebrain, mainly α4β2): 3.71 nM
CN1CCC[C@H]1COc1cncc(C#CCNC(=O)OC(C)(C)C)c1 [Ligand 13] | 1.19 | 8240 | 7.27 | 59900 | 2.07 | 8280 | 3.71 |  |  |  |  |  |  |  | 
CN1CCC[C@H]1COc1cncc(C#CCO)c1 [Ligand 14] |  |  |  |  |  |  |  | 2.43 | 1880 | 7.64 | 18200 | 0.954 | 1690 | 3.16 | 
CN1CCC[C@H]1COc1cncc(C#CC(C)(C)O)c1 [Ligand 15] | 1.93 | 5890 | 19.7 | 32600 | 1.34 | 5060 | 8.39 |  |  |  |  |  |  |  | 
CN1CCC[C@H]1COc1cncc(C#CCCCCO)c1 [Ligand 16] | 2.87 | 3230 | 12.6 | 40200 | 0.81 | 1270 | 3.56 |  |  |  |  |  |  |  | 
CN1CCC[C@H]1COc1cncc(C#CCCCCCCCCO)c1 [Ligand 17] |  |  |  |  |  |  |  | 26.8 | 7800 | 52.1 | 62700 | 6.5 | 3560 | 21.7 | 
C#Cc1cncc(OC[C@@H]2CCCN2C)c1 [Ligand 18] |  |  |  |  |  |  |  | 0.75 | 434 | 10.7 | 3080 | 1.02 | 473 | 3.65 | 
CN1CCC[C@H]1COc1cncc(CCCCCCO)c1 [Ligand 19] | 3.33 | 1150 | 13.4 |  |  | 968 | 5.39 |  |  |  | 20000 | 0.75 |  |  | 
OCCCCC#Cc1cncc(OC[C@@H]2CCCN2)c1 [Ligand 27, 5-(6-Hydroxy-1-hexynyl)-3-(2(S)-pyrrolidinylmethoxy)pyridine] |  |  |  |  |  |  |  |  |  |  |  |  |  |  | Ki (α2β2 nAChR subtype; [9]): 1.51 nM; Ki (α2β4 nAChR subtype; [10]): 835 nM; Ki (α3β2 nAChR subtype; [11]): 2.69 nM; Ki (α3β4 nAChR subtype; [12]): 16100 nM; Ki (α4β2 nAChR subtype; [13]): 0.665 nM; Ki (α4β4 nAChR subtype; [14]): 778 nM; Ki [1, 15]: 1.15 nM
OCCCCC#Cc1cncc(C2CC3CCC2N3)c1 (stereo not drawn) [Ligand 31, 2-exo-(5-(6-Hydroxy-1-hexynyl)-3-pyridyl)-7-azabicyclo[2.2.1]heptane] |  |  |  |  |  |  |  |  |  |  |  |  |  |  | Ki (α2β2 nAChR subtype; [9]): 0.352 nM; Ki (α2β4 nAChR subtype; [10]): 45.1 nM; Ki (α3β2 nAChR subtype; [11]): 0.146 nM; Ki (α3β4 nAChR subtype; [12]): 266 nM; Ki (α4β2 nAChR subtype; [13]): 0.166 nM; Ki (α4β4 nAChR subtype; [14]): 15.4 nM; Ki [1, 15]: 0.215 nM
